Data from patent US10111874B2, “Combination therapies for treatment of cancer” (Araxes Pharma LLC, priority 2014, dated 2018).

What was measured:
SW1573 cells = experiment: Western blots of KRAS signaling nodes and cleaved PARP in SW1573 cells; assay type: cell-based
From the text: (§1) Western blots were used to analyze downstream KRAS signaling nodes (AKT, ERK, RSK, S6) and a marker of apoptosis (cleaved PARP). […] Taxol (paclitaxel) was used as a positive control.

[1] = system: mutant cell lines (H358, NCI-H23, SW1463, H1792, Calu-1, SW1573); experiment: Western blots, KRAS G12C inhibitor with SRC inhibitors in multiple cell lines; assay type: cell-based; settings: I-272 1 μM
From the text: (§2) Western blots were used to analyze downstream KRAS signaling nodes (AKT, ERK, RSK, S6) and a marker of apoptosis (cleaved PARP).
As a control, a non-G12C cell line (A549) was subjected to the same single agent and combination treatments. The KRAS G12C inhibitors show no single agent or additive/synergistic effects in this line.

[2] = system: mutant cell lines (NCI-H23, SW1573); experiment: Western blots, KRAS G12C inhibitor with ruxolitinib or momelotinib; assay type: cell-based; settings: I-272 1 μM
Experimental: Western blots were used to analyze downstream KRAS signaling nodes (AKT, ERK, S6), transcription factors (STAT3, IκBα), protein marker (TBK1) and a marker of apoptosis (cleaved PARP). Treatment of mutant cell lines (NCI-H23, SW1573) were tested with an exemplary KRAS G12C inhibitor (compound I-272, 1 μM) alone or in combination with one of ruxolitinib (JAK 1/2 inhibitor, 1 and 5 μM) or momelotinib (JAK1/2, TBK1, IKKe inhibitor, 1 and 5 μM). […] Further, there is synergistic p-S6 inhibition in each of the combinations. Synergistic apoptosis strongly occurred when TBK1 and non-canonical NFκB signaling is inhibited.

[3] = system: mutant cells (H358, Calu-1, MiaPaca2, NCI-H23, SW1463, H1792); experiment: Western blots / dot blot arrays of signaling pathways maintained or hyper-activated following KRAS G12C inhibition; assay type: cell-based; settings: 48 hours, versus untreated cell lines
From the text: FIG. 1 provides western blots for identifying synergistic pathways for targeting in combination with KRAS G12C inhibition. Shown are dot blot arrays for detection of phosphorylated receptor tyrosine kinases (p-RTK) and phosphorylated signaling kinases (ie. p-ERK, or p-AKT) for indicated cell lines treated with indicated K-Ras G12C inhibitor. Notable signaling targets and their respective pathways that are induced or maintained following treatment are summarized for various cell lines.
Western blots were used to analyze downstream KRAS signaling nodes (AKT, ERK, S6, EGFR/HER2, SRC, MET) and a transcription factor (STAT3). […] Sustained or induced pathways were assessed by comparing untreated cell lines with those treated by compound I-272.

[4] = system: mutant cell lines (H358, H1792, MiaPaca2); experiment: Western blots, KRAS G12C inhibitor with JAK inhibitor momelotinib in multiple cell lines; assay type: cell-based
Experimental: Western blots were used to analyze downstream KRAS signaling nodes (AKT, ERK, S6), a transcription factor (STAT3), and a marker of apoptosis (cleaved PARP). Treatment of mutant cell lines (H358, H1792, MiaPaca2) or a control cell line (A549) was tested with an exemplary KRAS G12C inhibitor (compound I-272, 0.3 and 1 μM) alone or in combination with momelotinib (JAK inhibitor, 5 μM). […] Specifically, when compound I-272 is used in combination with momelotinib (JAK inhibitor) PARP is detected in H358, H1792, and MiaPaca2.

[5] = target: T1, KRAS G12C 1-169, his-tagged protein, GDP-loaded (Homo sapiens, UniProt P01116, G12C); experiment: Biochemical assay: covalent binding to KRAS G12C analyzed by mass spectrometry; settings: compounds 247-342, measured at 30 min; listed as 272
T1 construct: KRAS G12C 1-169, his-tagged protein, GDP-loaded
T1 sequence (P01116 1-169 isoform P01116-2 G12C): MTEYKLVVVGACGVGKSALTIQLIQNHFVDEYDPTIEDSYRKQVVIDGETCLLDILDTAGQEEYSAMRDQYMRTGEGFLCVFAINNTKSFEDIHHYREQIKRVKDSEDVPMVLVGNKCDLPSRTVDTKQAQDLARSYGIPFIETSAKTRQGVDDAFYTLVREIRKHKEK

Calu-1 cells = experiment: Western blots of KRAS signaling nodes and cleaved PARP in Calu-1 cells; assay type: cell-based; settings: I-272 30, 100, 300, and 1000 nM, Dasatinib 150 nM
From the text: as §2

[6] = system: KRAS G12C mutant cells lines (H358, H2122, H2030, H1792, Calu-1, MiaPaca2, and NCI-H23); experiment: Caspase activity luminescence assay (Capase-Glo) with compound II-64 alone or in combination; assay type: cell-based; settings: alone
Experimental: Caspase activity was measured using a standard caspase activity luminescence assay (Capase-Glo, Promega). Taxol (paclitaxel) was used as a positive control.

H358 cells (KRAS G12C) = experiment: Western blots of downstream KRAS signaling nodes and apoptosis markers in H358 cells; assay type: cell-based; settings: for apoptosis based on cleaved PARP levels: H358 cells, erlotinib 5 μM
Experimental: FIG. 2 depicts western blot analysis of downstream targets of K-Ras signaling. […] Paclitaxel was used as a positive control. The western blots were probed with antibodies for p-AKT, p-ERK, total ERK, p-RSK, p-S6 and cleaved PARP. Cleaved PARP is indicative of apoptosis. B) A549 cells that express the G12S isoform of K-Ras were used a control for K-Ras G12C inhibitor specificity. A549 cells were treated as in A).
as §2, §1
Western blots were used to analyze downstream KRAS signaling nodes (AKT, ERK, RSK, S6) and a marker of apoptosis (cleaved PARP). […] Caspase activity was measured using a standard caspase activity luminescence assay (Capase-Glo, Promega).

H358 cells = experiment: Flow cytometry, cell cycle progression and apoptosis (sub-diploid cells); assay type: cell-based; settings: single agents
Experimental: B) The average apoptosis response of NCI-H358, NCI-H1792, NCI-H2122, and SW1573 cell lines generated by flow cytometry as described in A).
(§3) Apoptosis was measured via flow cytometry. Gated populations=% of subdiploid apoptotic cells.
as §3
FIG. 7 depicts apoptosis in NCI-H358 cells treated with II-64 (10 μM), SN38 (5 nM), or a combination treatment (II-64+SN38). […] Apoptosis was measured via flow cytometry. Gated populations=% of subdiploid apoptotic cells.
Flow cytometry was used to evaluate KRAS G12C inhibitor combination treatments.
Next, flow cytometry was used to evaluate a KRAS G12C inhibitor in combination with the chemotherapeutic agents paclitaxel or docetaxel.

[7] = I-272 0.3 and 1 μM, alone, 24 hours

**Q.** Cc1nc(NC(=O)N2CCC[C@H]2C(N)=O)sc1-c1ccnc(C(C)(C)C(F)(F)F)c1 [BYL719, Alpelisib] was tested. Which “apoptosis based on cleaved PARP levels” value (SW1573 cells) did it give?
**A.** does not induce robust apoptosis

**Q.** C=CC(=O)N1CCN(c2ncnc3c(F)c(-c4cc(O)cc5ccccc45)c(Cl)cc23)CC1 [Compound I-272, 1-(4-(6-chloro-8-fluoro-7-(3-hydroxynaphthalen-1-yl)quinazolin-4-yl)piperazin-1-yl)prop-2-en-1-one] was tested. Which “inhibition of p-ERK” value ([1]; alone, 24 hours) did it give?
**A.** clear and, in some cases (H358, SW1463, Calu-1), nearly complete inhibition of p-ERK

**Q.** What about the “inhibition of p-S6” value ([1]; dasatinib 100 nM, 24 hours) of the same compound?
**A.** inhibition of p-S6 in H358, SW1463, H1792, and Calu-1 cell lines

**Q.** What about the “apoptosis based on cleaved PARP levels” value ([1]; dasatinib 100 nM, Saracatinib 2 μM) of the same compound?
**A.** minimal cleaved PARP

**Q.** What about the “inhibition of p-ERK” value ([2]; alone, 24 hours) of the same compound?
**A.** clear and nearly complete inhibition of p-ERK

**Q.** And the “inhibition of p-S6 and p-AKT” value ([2]; alone, 24 hours)?
**A.** inhibition of p-S6 and p-AKT in NCI-H23

**Q.** What about the “apoptosis based on cleaved PARP levels” value ([2]; ruxolitinib or momelotinib 1 and 5 μM) of the same compound?
**A.** minimal cleaved PARP

**Q.** And the “sustained or induced pathways following KRAS G12C inhibition” value [3]?
**A.** sustained or induced pathways suggesting targeting with RTK, PI3K, mTOR, SRC, and JAK/STAT inhibitors

**Q.** And the “inhibition of S6” value [4, 7]?
**A.** some to nearly complete inhibition of S6 (in H358)

**Q.** What about the “inhibition of p-ANK” value [4, 7] of the same compound?
**A.** some inhibition of p-ANK (in H358)

**Q.** And the “inhibition of p-ERK” value [4, 7]?
**A.** some and nearly complete inhibition of p-ERK (in H1792 and H358 respectfully)

**Q.** And the “induction of apoptosis (cleaved PARP)” value ([4]; I-272 0.3 and 1 μM, momelotinib 5 μM)?
**A.** some induction of apoptosis as observed by the presence of cleaved PARP (in H358 and MiaPaca2)

**Q.** And the “induction of STAT3” value ([4]; I-272 alone, also control cell line A549)?
**A.** induces STAT3 in certain cell lines (slight in H358 and H1792, strong in MiaPaca2 and A549)

**Q.** And the Binding % [5]?
**A.** ++++ (++++indicates binding activity greater than 75%)

**Q.** And the “inhibition of downstream KRAS signaling nodes (Western blot)” value (Calu-1 cells; 24 hours)?
**A.** clear and, at higher concentrations, nearly complete inhibition of p-ERK and p-RSK

**Q.** And the “apoptosis based on cleaved PARP levels” value (Calu-1 cells)?
**A.** minimal cleaved PARP

**Q.** For C#Cc1cccc(Nc2ncnc3cc(OCCOC)c(OCCOC)cc23)c1 [erlotinib, reference compound], which caspase activity [6] is on record?
**A.** did not induce significant caspase activity

**Q.** And the “G1 arrest and induction of apoptosis” value (H358 cells (KRAS G12C); H358 cells (FIG. 9, left panel))?
**A.** G1 arrest with low to modest induction of apoptosis

**Q.** And the “apoptosis based on c-caspase 3 levels” value (H358 cells (KRAS G12C); H358 cells (FIG. 11))?
**A.** does not induce robust apoptosis

**Q.** And the “apoptosis based on cleaved PARP levels” value (H358 cells (KRAS G12C); 24 hours, G12C inhibitors 10 μM, GDC0941 2 μM (FIG. 2))?
**A.** does not induce robust apoptosis

**Q.** What about the “apoptosis based on cleaved PARP levels” value (H358 cells (KRAS G12C); I-74 15 μM, PD0325901 100 nM, GDC0941 1 μM) of the same compound?
**A.** does not induce robust apoptosis

**Q.** And the “cell cycle arrest and induction of apoptosis (flow cytometry)” value (H358 cells)?
**A.** G1 arrest with low to modest induction of apoptosis
